Data as given in patent US20230071765A1, “COMPOSITIONS HAVING THIOREDOXIN ACTIVITY AND RELATED METHODS” (ORPRO THERAPEUTICS, INC., priority 2020, published 2023).
“And” between values parts separate entries of the source, which are not always exact repeats. Identical values can stand only once. Each block holds one molecule with its values, some of them ahead of it.

Experiments:
[1] = tested on: mucins of 4% HBE mucus; test: mucin molecular weight by GPC-MALLS; type: biochemical, human; conditions: 1 mM, 1 hr at 37° C.; from 180 MDa
Description: Mucus Preparation: Aseptic mucus was harvested from over 100 individual HBE cultures from 20 different CF donors and prepared to four weight-percent (4%) solids, a concentration that typifies chronic obstructive pulmonary disease (COPD) and mild CF (Hill, D. B. et al., 2014, A biophysical basis for mucus solids concentration as a candidate biomarker for airways disease, PloS one 9, e87681; Anderson, W. H. et al., 2015, The relationship of mucus concentration (hydration) to mucus osmotic pressure and transport in chronic bronchitis., Am J Resp Crit Care Med 192: 182-90). […] Creep recovery experiments were performed in which a known stress (between 0.05 and ˜100 Pa) was applied to treated or control mucus for 10 seconds, and the rheological recovery of the fluid was recorded for an additional 50 seconds. […] From the measured parameters the viscosity and elasticity of the fluid were determined as a function of applied stress. […] Mucin molecular weight determination: Molecular weight reduction following test article treatment was determined using a combination of gel-permeation chromatography with multi-angle laser light scattering on a Wyatt Heleos MALLS system. […] Mucin MW was determined by fitting a Berry model to light scattering from 11 different angles using Wyatt Astra software. […]

[2] = tested on: primary HBE cells from healthy non-CF donors; test: μOCT of MCT rate and CBF in non-CF primary HBE cells; type: cell-based, human; conditions: 3 hrs post-treatment; ORP100S 1-3 mM, DTT 1.6 mM; PBS 0.05±0.007; mean±SE
Description: (§1) Primary human bronchial epithelial (HBE) cells were derived from lung explants from healthy failed donors and CF patients homozygous for F508del CFTR. […]
(§2) One-micron resolution spectral domain μOCT was used to obtain measurements of mucociliary transport (MCT) rate and ciliary beat frequency (CBF) in HBE monolayers and of MCT rate of sputum ex vivo. This first-in-kind, high-speed (40 frames per second, 512 lines per frame) microscopic reflectance imaging modality enables simultaneous anatomic imaging in cell cultures and intact tissues that readily distinguishes the properties of CF compared to normal epithelia (Liu L, Chu K K, Houser G H, Diephuis B J, Li Y, Wilsterman E J, Shastry S, Dierksen G, Birket S E, Mazur M, et al., 2013, Method for quantitative study of airway functional microanatomy using micro-optical coherence tomography, PLoS One 8(1):e54473; Tuggle K L, Birket S E, Cui X, Hong J, Warren J, Reid L, Chambers A, Ji D, Gamber K, Chu K K, et al., 2014, Characterization of defects in ion transport and tissue development in Cystic Fibrosis Transmembrane Conductance Regulator (CFTR)-knockout rats. […] Images were captured, and MCT rate and CBF calculated, as described in the preceding references.

[3] = tested on: primary HBE cells from CF donors homozygous for F508del; test: μOCT of MCT rate and CBF in CF primary HBE cells; type: cell-based, human; conditions: 3 hrs post-treatment; ORP100S 1-3 mM, DTT 1.6 mM; PBS 7.30±2.9; mean±SE
Description: as §1, §2

[4] = tested on: CF patient sputum on wild type rat trachea; test: CF sputum transport ex vivo on excised rat trachea (μOCT); design: species or system human sputum; conditions: sputum treated 2 hrs; ORP100S 3 mM, DTT 1.6 mM, DNase 10 or 25 μg/ml; PBS 0.97±0.17
Method: To determine the effect of ORP100S on CF sputum transportability, sputum specimens spontaneously expectorated from 4 CF patients hospitalized for pulmonary exacerbation were collected and stored at 4° C. before being divided into 200 μL aliquots and treated with ORP100S (3 mM), PBS, DTT (1.6 mM), or DNase (10 or 25 μg/ml) on the day of or day following collection. Upon treatment, sputum aliquots were placed in a 37° C. water bath for 2 hrs and then applied (3 μl per sample) for μOCT imaging to the distal end of trachea excised from adult non-CF rats. Trachea were washed 2× with 500 μl of PBS before sputum addition. […]
One-micron resolution spectral domain μOCT was used to obtain measurements of mucociliary transport (MCT) rate and ciliary beat frequency (CBF) in HBE monolayers and of MCT rate of sputum ex vivo. […] Images were captured, and MCT rate and CBF calculated, as described in the preceding references.
The effect of ORP100S on mucus clearance using intact rat trachea, which include the complexities of the airway surface such as gland expression of a fully differentiated mucosal surface, was further evaluated. […] MCT was measured by projecting a cross-sectional line through the mucus through time, with the slope of the particle trajectories indicating velocity. […]

[5] = thiol pKa; thioredoxin: active site Cys32; cited from earlier work
[6] = target: T1, human insulin (Homo sapiens, UniProt P01308); test: RP-HPLC insulin reduction assay (conversion of insulin heterodimer); type: biochemical
T1 construct: The two chains of human insulin have a total of six Cys residues which form three disulfide bonds in its mature structure
Method: Functional assays 1. Reduction state of ORP100S was quantified using DTNB which reacts with free SH groups resulting in a yellow color change at 412 nm. Fifty microliters of 2.5 mM rhTrx was added to a 96-well plate, followed by 175 microliters of sample buffer and 25 microliters of 6 mM DTNB. After reactions were initiated by the addition of DTNB, change in kinetic absorbance at 412 nm due to DTNB reduction was monitored spectrophotometrically at 30° C. ORP100S concentration was determined by A280 (Nanodrop) using the extinction coefficient of human Trx-1 (7,000). The actual concentrations of free sulfhydryl groups were calculated based on the absorbance at 412 nm and the extinction coefficient of DTNB (14,150) in order to determine the reduction state as percentage of free sulfhydryl. […] 2. Percent of free monomer ORP100S in solution was determined using SEC. Samples were analyzed on a BioBasic S-300 250×4.6 column (Thermo Scientific) run on an Agilent 1100 HPLC system. […] The flow rate was 0.35 mL/min and absorbance was monitored at 280 nm. […] The ORP100S monomer percentage was determined by integration of the area under the peak of the monomeric fraction divided by the total area under the curve of the chromatogram. […] Disulfide bond reduction activity of ORP100S was quantified by assaying the reduction state of a small protein (human insulin) which in its heterodimeric form contains two intermolecular and one intramolecular disulfide, all three of which are known to be suitable thioredoxin substrates. Insulin reduction has classically been used to quantify thioredoxin activity by absorbance change following addition of NADPH and TrxR (Holmgren A., 1979, Thioredoxin catalyzes the reduction of insulin disulfides by dithiothreitol and dihydrolipoamide, J Biol Chem 254:9627-32). […] Relative activity at each time point was determined from changes in the area under the insulin heterodimer peak following separation over RP-HPLC (Agilent 1100) using an Intrada WP-RP 50×3 (Imtakt) column. […] The flow rate was 0.2 mL/min and absorbance was measured at 280 nm. […]

T1 sequence (P01308 25-54 limits assumed): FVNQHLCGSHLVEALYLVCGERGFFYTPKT
T1 sequence (P01308 90-110 limits assumed): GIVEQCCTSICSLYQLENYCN

Compound: O[C@H](CS)[C@H](O)CS (racemic) [DTT, dithiothreitol, reference compound]
molecular weight of mucins [1]: 210 MDa
MCT rate [2]: 1.41±0.1 mm/min
MCT rate [3]: 33.33±12.9 mm/min
MCT rate of treated sputum [4]: 2.31±0.34 mm/min

Compound: N[C@@H](CCC(=O)N[C@@H](CS)C(=O)NCC(=O)O)C(=O)O [GSH, glutathione]
pKa [5]: 9.1

Compound: O=S(=O)(O)CCS [Mesna, 2-mercaptoethane sulfonate Na]
pKa [5]: 9.2

insulin reduction ([6]; 1.25 mM, pH 6 or 8, 60 min): inactive
insulin reduction ([6]; 12.5 mM, pH 6, 60 min): not at pH 6
insulin reduction ([6]; 12.5 mM, pH 8, 60 min): able to reduce insulin
Compound: CC(=O)N[C@@H](CS)C(=O)O [NAC, N-acetyl cysteine, reference compound]

Compound: NCCS [cysteamine]
pKa [5]: 8.3 and 8.5
